{"source": "patent US11066423B2", "about": "“Monomeric bimetal hydroxycitric acid compounds and methods of making and using the same” (GLYKON TECHNOLOGIES GROUP, LLC, priority 2016, dated 2021)", "key": {"[1]": {"settings": "cited from earlier work"}, "[2]": {"experiment": "Conductivity of solutions (electrical conductivity, HACH Conductivity/TDS meter)", "assay_type": "physicochemical", "description": "The structure of the subject compounds (e.g., as described herein) can be deduced using a conductance meter to observe the extent of dissociate of the first and/or second metals from the compounds. In an experiment described below equimolar samples and comparative electrolyte conductance to K-acetate solution as a standard, data may be obtained which is characteristic of electrolyte binary conductants. […] The KMgHCA solution in water may have a pH 8-10 depending on the concentration. Under this condition, the heterocyclic anion formed will tend toward a stable form rather than an ionizable one.\nSeveral experiments investigating the electrical conductivities of solutions of KMgHCA, KZnHCA and KMnHCA were performed. The equipment used was HACH Conductivity/TDS meter, P/N=4460-00.\nMaterials: KMgHCA.4H2O, KZnHCA.2H2O, KMnHCA.2H2O were prepared using methods described herein. KC2H3O2 and […] was obtained from Merck. H2O used was demineralized water.\nGeneral procedure: All the HCA compounds and Acetate were weighed and placed in a volumetric flask and dissolved with demineralized water to one liter solution and then they were tested the conductivity (EC)."}, "[3]": {"tested_on": "de novo lipogenesis (DNL)", "settings": "obese subjects, 6 g HCA/day for 5 days; cited from earlier work"}, "[4]": {"tested_on": "de novo lipogenesis (DNL)", "experiment": "Decrease of de novo lipogenesis in rats (literature)", "assay_type": "in vivo", "settings": "extrapolated from rats", "description": "Dosages of various HCA compositions found to be effective are quite large, indeed beyond the normal range for pharmaceutical products, with efficacy that is highly variable. […] A later study found a significant, yet limited effect after 7 days of a diet designed specifically to induce de novo lipogenesis in humans. (Physiol Behay. 2006 Jul. 30; 88(4-5):371-81). See also, Nutr Metab (Lond). 2005 Sep. 13; 2:23."}, "Osteoporosis": {"tested_on": "Osteoporosis", "experiment": "Example 14: comparison of KCaHCA and/or KMgHCA compositions, single subject", "assay_type": "in vivo, human", "settings": "for symptoms of osteoporosis: 200 mg 3 times a day after meals; for subject's condition during the regimen: 200 mg doses 3 times a day, sequential regimens in the same subject after 3 months of the blend", "experimental": "• Subject: (cited as Example 12, above) • • Problem: Osteoporosis Treatment: Materials were consumed 3 times a day after meals. • Experiment 1. Blending 150 mg KMgHCA.8H2O+50 mg KCaHCA.3H2O • A 200 mg mixture of KCaHCA (25%) and KMgHCA (75%) prepared according to the subject methods was used. The actual percentage of calcium was (40/338)×25%=2.96%. Since KCaHCA.3H2O was used the percentage of magnesium in the composition was (24/412)×75%=4.37%. Since KMgHCA.8H2O was used, the ratio Ca:Mg=0.15:0.36 in mmol. • Experiment 2. 200 mg KMgHCA.8H2O • Experiment 3."}, "[5]": {"tested_on": "osteoporosis and calcification on hand and leg", "experiment": "Example 13: comparison of different bimetal regimes (KMg vs. KCa vs. combination), two subjects", "assay_type": "in vivo, human", "design": "key to Treatment performance: + +: very good performance; + −: good but slight complaint", "experimental": "Subject I: a person, 40 kg (cited in Example 11, above)\nSubject II: a person; 72 kg\n• Treatment: A. Mixture 25% KCa HCA+75% KMg HCA bimetals (100-200 mg) • B. Only KMg HCA bimetal Results: […]"}, "[6]": {"settings": "0.3 mmol/l in demineralized water, no additive"}}, "data": [{"smiles": "O=C(O)CO", "note": "[glycolic acid]", "values": [{"measurement": "pKa", "setting": "[1]", "value": "approx 3.83"}]}, {"smiles": "CC(=O)[O-].[K+]", "note": "[KC2H3O2, K-acetate, reference compound]", "values": [{"measurement": "E. C (μS/cm)", "setting": "[2]; [6]", "value": 56.06, "unit": "μS/cm"}]}, {"smiles": "CC(=O)[O-].CC(=O)[O-].O.O.O.O.[Mg+2]", "note": "[Mg(CH3COO)2•4H2O, reference compound]", "values": [{"measurement": "E. C (μS/cm)", "setting": "[2]; [6]", "value": 32.3, "unit": "μS/cm"}]}, {"smiles": "O=C(O)CC(O)(C(=O)O)C(O)C(=O)O", "note": "(stereo not drawn) [HCA, Hydroxycitric acid]", "values": [{"measurement": "inhibition of DNL / promotion of fatty acid oxidation", "setting": "[3]", "value": "failed to inhibit DNL"}, {"measurement": "effective dose extrapolated to a 70 kg human being", "setting": "[4]", "value": "approximately 4.5 g/day"}]}, {"smiles": "O=C1CC(O)(C(O)C(=O)[O][Mg][O]C(=O)C(O)C2(O)CC(=O)[O][Mg][O]C2=O)C(=O)[O][Mg][O]1", "note": "(stereo not drawn) [Mg3(HCA)2•2H2O, reference compound]", "values": [{"measurement": "E. C (μS/cm)", "setting": "[2]; 0.1 mmol/l in demineralized water (equimolar in Mg2+ to run 8)", "value": 31.2, "unit": "μS/cm"}]}, {"smiles": "O=C([O-])C[C@@](O)(C(=O)[O-])[C@H](O)C(=O)[O-].[Ca+2].[K+]", "note": "[KCaHCA]", "values": [{"measurement": "symptoms of osteoporosis", "setting": "Osteoporosis", "value": "not effective"}, {"measurement": "subject's condition during the regimen", "setting": "Osteoporosis", "value": "unable to move their leg"}]}, {"smiles": "O=C1CC(O)(C(O)C(=O)[O-])C(=O)[O][Mg][O]1.[K+]", "note": "(stereo not drawn) [KMgHCA, Potassium Magnesium Bimetal HCA Compound]", "values": [{"measurement": "κ value contribution of Mg—O bond (half of the 2 bond contribution)", "setting": "[2]; 0.3 mmol/l", "value": 2.095, "unit": "μS/cm"}, {"measurement": "E. C (μS/cm)", "setting": "[2]; [6]", "value": 60.25, "unit": "μS/cm"}, {"measurement": "E. C (μS/cm)", "setting": "[2]; 0.3 mmol/l, additive 10 mg gliserol", "value": 60.23, "unit": "μS/cm"}, {"measurement": "E. C (μS/cm)", "setting": "[2]; 0.3 mmol/l, additive 10 mg glucose", "value": 60.29, "unit": "μS/cm"}, {"measurement": "2 bond of Mg—O contribution to κ value", "setting": "[2]; run 2 minus run 1 (60.25-56.06)", "value": "~4.19", "unit": "μS/cm"}, {"measurement": "Treatment performance", "setting": "[5]; Patient II (72 kg)", "value": "+ −"}, {"measurement": "observed result following treatment", "setting": "[5]; Subject II", "value": "could stand on their feet"}, {"measurement": "reduction of symptoms", "setting": "[5]; Subject II", "value": "partial reduction of symptoms"}, {"measurement": "symptoms of osteoporosis", "setting": "Osteoporosis", "value": "partial improvement"}, {"measurement": "subject's condition during the regimen", "setting": "Osteoporosis", "value": "slight difficult to walk because feeling of burning sensation in their feet"}]}]}
